Data set [1] deals with imatinib-resistant cell lines. Kind of data set: Caspase 3/7 apoptosis assay of screen hits. In kind it is cell-based. Particulars: sorafenib 500 nM; both imatinib-resistant cell lines. On the procedure:
(§1) Around 10,000 cells/well were plated in complete media in 96-well white flat-bottom plates and therapeutic compounds were added 24 hours later. Apoptosis was evaluated by measuring caspase-3/7 activity using Caspase-Glo 3/7 Assay System (Promega, WI, USA) after 24 and 48 h of treatment with inhibitors. […] Inhibitor concentrations used were as mentioned in figure legends.
(§2) The data is represented as % of control; each bar represents the mean of triplicates. […] Cells were treated with inhibitors at indicated concentrations for 24 h.

Data set [2] relates to imatinib sensitive and resistant cell lines. Kind of data set: Caspase 3/7 apoptosis assay of screen hits. Particulars: 24 h and 48 h; irinotecan 0.5 μM, sorafenib 500 nM, compound C 5 μM, triptolide 25 nM. On the procedure:
as §1, §2

Data set [3] relates to GIST-T1/10R. In words: Cell proliferation assay (Cell Counting Kit-8). In kind it is cell-based, human. Particulars: Homo sapiens, GISTT1; cell viability after 72 hours of treatment; read-out: IC50 T1-10R.
In data set [4] the test system is GIST-T1/670. In words: Cell proliferation assay (Cell Counting Kit-8). In kind it is cell-based, human. Particulars: for pIC50: Homo sapiens, GISTT1, cell viability after 72 hours of treatment, read-out: IC50 T1/670.
The subject of another data set is GIST882. In words: Cell proliferation assay (Cell Counting Kit-8), drug screen. In kind it is cell-based. Conditions: Homo sapiens, GIST882; cell viability after 72 hours of treatment; read-out: IC50 GIST882. For orientation: Tetrazolium assays rely on reduction of a dye to a coloured formazan, in cell work by metabolically active cells.
Data set [5] has as its system GIST-T1. The description is as above. Conditions: Homo sapiens, GISTT1; cell viability after 72 hours of treatment; read-out: IC50 GIST-T1. In kind it is cell-based, human.
The subject of another data set is metastatic GIST. Conditions: cited from earlier work; for time until resistance occurs: second-line / third-line therapy.
Data set [6] concerns GIST-T1/10R. In words: Caspase 3/7 apoptosis assay. In kind it is cell-based, human. Particulars: 48 h, single agent. From the text:
(§3) Inhibitor concentrations used were as mentioned in figure legends.
(§4) Fig 4 Combined Inhibition of KIT, PI3K and MAPK signaling pathways induces apoptosis in GIST cells. […] The data is represented as percent increase over untreated cells; each column represents mean of triplicates. […] (***p<0.0001); (**p<0.001); (*p<0.05).

The test system of data set [7] is GIST-T1. Kind of data set: Caspase 3/7 apoptosis assay. In kind it is cell-based, human. Particulars: GIST-T1, 48 h, single agent.
Excerpt: as §3, §4

Data set [8] concerns GIST-T1/670. In words: Caspase 3/7 apoptosis assay. In kind it is cell-based, human. Conditions: GIST-T1/670, 48 h, single agent.
Excerpt: as §3, §4

A further data set concerns p-KIT. Kind of data set: Immunoblot analysis of p-KIT. In kind it is cell-based. Conditions: 100 nM, GIST882, 24 h, western blot. A general note: Immunoblotting shows a protein as a band on a membrane.
The test system of the next data set is p-MAPK. In words: Immunoblot analysis of p-MAPK (p-ERK). In kind it is cell-based. Conditions: GIST-T1, IM 1 μM, 24 h, western blot.
The subject of data set [9] is MCF7. In words: Caspase 3/7 apoptosis assay of screen hits. In kind it is cell-based. Conditions: triptolide 25 nM. On the procedure:
as §1, §2

The test system of data set [10] is imatinib sensitive cell lines. Kind of data set: Cell proliferation assay. In kind it is cell-based. Conditions: 72 h.
In data set [11] the test system is MCF7. In words: Cell proliferation assay, control cell line. Conditions: Homo sapiens, MCF7, 72 h, read-out: IC50 MCF7.
In another data set the test system is MRC5. Kind of data set: Cell proliferation assay, control cell line. Conditions: Homo sapiens, MRC5, 72 h, read-out: IC50 MRC5.
The test system of a further data set is p-Akt. In words: Immunoblot analysis of p-Akt. In kind it is cell-based. Conditions: 100 nM, 24 h, all cell lines tested, western blot.
A further data set deals with GIST cell lines. In words: Cell proliferation assay with trametinib. Particulars: compared with PD, 72 h.
The test system of data set [12] is GIST-T1/670. In words: Clonogenic (colony outgrowth) assay after drug removal. In kind it is cell-based, human. Particulars: single agent, 1 month treatment, 2 weeks drug-free.
Protocol: Cells were treated with either IM (1 μM), SU (1 μM), RE (1 μM), GDC (500 nM), PD (500 nM), trametinib (500 nM), either alone or in combination for 1 month with replacement of fresh media with drug every week. Thereafter, cells were washed with PBS twice and fresh media without inhibitors was added and colonies were allowed to grow for 2 more weeks. The colonies were stained with crystal violet and counted. Untreated wells were not revived for extra 2 weeks.
After 1-month duration of treatment, cells were allowed to grow in drug-free media for two weeks before staining with crystal violet.
Setting [13] is: clinical trials in GIST patients.

pIC50: −log10 of the molar value.

Protocol for p-KIT: (C) GIST882 cells were treated with the indicated inhibitor concentrations for 24 h and cell lysates were run on SDS-PAGE followed by immunoblotting to detect the indicated proteins. Data is representative of two independent experiments.

For `CNC(=O)c1cc(Oc2ccc(NC(=O)Nc3ccc(Cl)c(C(F)(F)F)c3)cc2)ccn1` [Sorafenib], the “increase in apoptosis (caspase 3/7 activity)” value in data set [1] was 4–8 fold. Moreover, the “cytotoxic effects (caspase 3/7 activity)” value in data set [2] was no less than 2 fold. For the same compound, the pIC50 in the data set on GIST-T1/10R [3] is 6.70; in the data set with GIST-T1/670 [4], greater than 6.30; in the data set on GIST882 it was greater than 7.00; in the data set with GIST-T1 [5], 7.60. Besides, in the data set on metastatic GIST (setting [13]), the “overall progression free survival” value is on record as less than 6 mo. The overall response rate in the data set with metastatic GIST (setting [13]) is less than 10%.
`Cc1ccc(NC(=O)c2ccc(CN3CCN(C)CC3)cc2)cc1Nc1nccc(-c2cccnc2)n1` [Imatinib]: the “induction of apoptosis (caspase activity)” value in the data set with GIST-T1/10R [6] is listed as “did not show increase in caspase activity”. For the same compound, the “induction of apoptosis (caspase 3/7 activity)” value with GIST-T1 [7] and in the data set with GIST-T1/670 [8] was “did not induce apoptosis” throughout. Also, in the data set on p-KIT, the “inhibition of p-KIT” value was “not sufficient to completely inhibit p-KIT”. For the same compound, the stable disease result with metastatic GIST (KIT/PDGFRA-driven metastatic GIST, share of cases) is “approximately 85%”. In addition, in the data set with metastatic GIST (prolonged exposure), the “time of treatment to secondary resistance mutations” value is reported as 18–24 months. In the data set on p-MAPK, the “inhibition of downstream MAPK signaling” value came to 50%.
As for `CC(C)[C@]12O[C@H]1[C@@H]1O[C@]13[C@]1(O[C@H]1C[C@H]1C4=C(CC[C@@]13C)C(=O)OC4)[C@@H]2O` [Triptolide], the “cytotoxicity (caspase 3/7 activity) in MCF7” value in the data set on MCF7 [9] is reported as “showed cytotoxicity”. Moreover, the “concentration that inhibited the proliferation of imatinib sensitive cell lines” value in [10] was less than 0.5 µM. Further, in data set [2], the “cytotoxic effects (caspase 3/7 activity)” value was no less than 2 fold. The pIC50 in the data set on GIST-T1/10R [3] is greater than 7.60; in the data set with MCF7 [11], less than 5.00; with GIST-T1/670 [4], greater than 7.60; in the data set on GIST882 it was greater than 8.00; in the data set with GIST-T1 [5], greater than 8.00; in the data set on MRC5, 8.00.
Turning to `CS(=O)(=O)N1CCN(Cc2cc3nc(-c4cccc5[nH]ncc45)nc(N4CCOCC4)c3s2)CC1` [GDC-0941], the “induction of apoptosis (caspase 3/7 activity)” value with GIST-T1/670 [8] is “did not induce apoptosis”. The pIC50 in the data set with GIST-T1/10R [3] was less than 6.00; with GIST-T1/670 [4] it was less than 6.00; in the data set on GIST882, 6.30; with GIST-T1 [5], 6.52. For the same compound, in the data set with p-Akt, the “inhibition of phosphorylation of Akt” value was “inhibits phosphorylation of Akt”.
As to `CC(=O)Nc1cccc(-n2c(=O)n(C3CC3)c(=O)c3c(Nc4ccc(I)cc4F)n(C)c(=O)c(C)c32)c1` [TR, trametinib], the “inhibition of cell proliferation as a single agent” value with GIST cell lines is on record as “better at inhibiting cell proliferation than PD”.
For the compound `CNC(=O)c1cc(Oc2ccc(NC(=O)Nc3ccc(Cl)c(C(F)(F)F)c3)c(F)c2)ccn1` [Regorafenib], the “induction of apoptosis (caspase 3/7 activity)” value in the data set on GIST-T1 [7] is on record as “did not induce apoptosis”; with GIST-T1/670 [8], “able to induce apoptosis effectively”. The pIC50 was 6.00 with GIST-T1/10R [3]; less than 5.00 in the data set on MCF7 [11]; 6.00 with GIST-T1/670 [4]; greater than 7.00 in the data set on GIST882; greater than 7.00 in the data set on GIST-T1 [5]; less than 5.00 in the data set on MRC5. In addition, the “time until resistance occurs” value in the data set with metastatic GIST is listed as 6–12 months.
Regarding `CCN(CC)CCNC(=O)c1c(C)[nH]c(/C=C2\C(=O)Nc3ccc(F)cc32)c1C` [Sunitinib], in the data set with GIST-T1/10R [6], the “induction of apoptosis (caspase activity)” value was “did not induce apoptosis”. For the same compound, in the data set on GIST-T1 [7], the “induction of apoptosis (caspase 3/7 activity)” value is “not effective”. Besides, the “suppression of colony outgrowth” value in the data set on GIST-T1/670 [12] is reported as “effective”. Further, the pIC50 with GIST-T1/10R [3] was less than 5.00; in the data set on GIST-T1/670 [4], less than 5.00; with GIST882 it was greater than 6.70; in the data set with GIST-T1 [5], 7.60. Further, the “sensitivity of cell line (proliferation)” value in the data set with GIST-T1/670 [4] (GIST-T1/670, S1A Fig) was “sensitive”. In addition, the “time until resistance occurs” value in the data set with metastatic GIST is 6–12 months.

The values are drawn from article PMC8320897, “Inhibition of PI3K and MAPK pathways along with KIT inhibitors as a strategy to overcome drug resistance in gastrointestinal stromal tumors” (PLoS ONE, 2021).
